Laboratory results reported in article PMC11187126, “Structure and dynamics of the pyroglutamylated RF-amide peptide QRFP receptor GPR103” (Nature Communications, 2024).
Where two headings read alike, the source gives them in different places. No end group written: not given here.

Biological target: T1, GPR103 E203^ECL2A (Homo sapiens, UniProt Q96P65, E203A)
T1 construct: we used human full-length QRFPR-encoding plasmids; expressed in transfected cells; host or cells: HEK293 cells, pCAGGS vector
T1 sequence (Q96P65 1-431 E203A): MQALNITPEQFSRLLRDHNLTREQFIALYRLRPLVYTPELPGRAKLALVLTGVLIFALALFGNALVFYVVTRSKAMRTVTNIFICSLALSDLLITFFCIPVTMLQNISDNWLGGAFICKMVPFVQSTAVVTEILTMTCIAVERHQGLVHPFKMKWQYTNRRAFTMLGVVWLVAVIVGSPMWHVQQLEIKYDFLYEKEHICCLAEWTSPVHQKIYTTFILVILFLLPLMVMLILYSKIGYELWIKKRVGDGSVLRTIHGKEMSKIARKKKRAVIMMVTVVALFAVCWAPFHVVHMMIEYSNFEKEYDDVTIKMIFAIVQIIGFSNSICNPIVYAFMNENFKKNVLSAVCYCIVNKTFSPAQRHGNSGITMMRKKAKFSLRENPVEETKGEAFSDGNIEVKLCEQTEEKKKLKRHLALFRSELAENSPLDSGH
Assay: TGFα shedding assay; Exp. level >WT (1:1)
Format: cell-based
Procedure: For the TGFα shedding assay and the flow cytometry analysis, we used human full-length QRFPR-encoding plasmids. Specifically, GPR103 was N-terminally modified with an HA signal sequence followed by a FLAG epitope and then a flexible linker ([…]; the FLAG epitope is underlined) and inserted into the pCAGGS vector. Plasmid encoding GPR103 mutants were generated using Quickchange Site-Directed Mutagensis kit (Agilent).
The TGFα shedding assay was performed as described previously with minor modifications. Plasmid transfection was performed in a 6-well plate with a mixture of 500 ng (per well in a 6-well plate) AP-TGFα-encoding plasmid and 200 ng GPR103-encoding plasmid. After 1-day culture, the transfected cells were harvested by trypsinization, pelleted by centrifugation at 190 × g for 5 min, and washed once with 5 mM HEPES (pH 7.4)-containing Hank’s Balanced Salt Solution (HBSS). After centrifugation, the cells were resuspended in 8 mL of the HEPES-containing HBSS. The cell suspension was seeded in a 96-well culture plate (cell plate) at a volume of 90 μL (per well hereafter) and incubated in a 37 °C incubator with 5% CO2 for 30 min. […] After spinning the cell plates at 190 × g for 2 min, 80 μL of conditioned media was transferred to an empty 96-well plate (conditioned media (CM) plate). Then, 80 μL of AP reaction solution (10 mM p-nitrophenylphosphate (p-NPP), 120 mM Tris-HCl (pH 9.5), 40 mM NaCl, and 10 mM MgCl2) was dispensed into the cell plates and the CM plates. Absorbance at 405 nm of the plates was measured using a microplate reader (SpectraMax 340 PC384, Molecular Devices) before and after 1-h incubation at room temperature. Ligand-induced AP-TGFα release was calculated by subtracting spontaneous AP-TGFα release signal from ligand-induced AP-TGFα release signal. The AP-TGFα release signals were fitted to a four-parameter sigmoidal concentration–response curve, using the Prism 10 software (GraphPad Prism). For each replicate experiment, the pEC50 parameter (negative logarithmic values of EC50 values) of the individual GPR103 mutants were normalized to that of the wild-type GPR103 performed in parallel, and resulting ∆pEC50 values were used to denote ligand response activity of the mutants. […]
Exp. le vel: WT (1:5 0)Exp. le vel: WT (1:5 0)Exp. le vel: WT (1:5 0)Exp. le vel: WT (1:2 0)Exp. le vel: WT (1:2 0)Exp. le vel: WT (1:1 0) […]
L1 4N - t e r mA F2 5N - t e r mA I 2 6N - t e r mA Y 2 9N - t e r mA C 9 82 .5 7A T10 22 .6 1A Exp . l eve l: WT (1 :5)Exp . l evel : >WT (1 :1)Exp. le vel: WT (1:2 0)Exp. le vel: WT (1:2 0)Exp. le vel: WT (1:5 0)Exp . l eve l: WT (1 :1) […]
Exp. le vel: WT (1:1 0)Exp. le vel: WT (1:2 0) C 1 1 83 .2 5AExp. le vel: WT (1:5 0)Exp. le vel: WT (1:5 0)Exp. le vel: WT (1:2 0)Exp . l eve l: WT (1 :5) […]
Exp. le vel: WT (1:5 0)Exp. le vel: WT (1:1 0)Exp. le vel: WT (1:5 0) E203ECL2AExp . l evel : >WT (1 :1)Exp. le vel: WT (1:5 0)Exp. le vel: WT (1:5 0) […]
Exp . l eve l: WT (1 :1) F28Exp. le vel: WT (1:5 0) C 2 8 56 .4 7AExp. le vel: WT (1:2 0) WExp. le vel: WT (1:2 0) F28Exp. le vel: WT (1:5 0)Exp . l evel : >WT (1 :1) […]
Exp. le vel: WT (1:5 0)Exp. le vel: WT (1:5 0) C 3 2 77 .4 8AExp . l eve l: WT (1 :5)Exp . l evel : >WT (1 :1)Exp . l evel : >WT (1 :1) […]
Suppl eme nt ary Figure 1 | Mutational analysis of GPR103. […]
mutants. Data are presented as mean values ± SEM, normally n=3-5; dots), each performed in triplicate. b-d Cell-surface expression (b) and QRFP26-in-duced activation of GPR103 (c, d) were analyzed by the flow cytometry and the TGFα shedding assay, respectively. From the concentration–response curves (a), Emax (c) and ΔpEC50 (d) values relative to the wild type were calculated. Colors in the mutant bars indicate an expression level matching to that of titrated wild type. Statistical analyses were performed using the ordinary one-way ANOVA followed by Dunnett tests with the expression-matched […]

TSGPLGNLAEELNGYSRKKGGFSFRF-NH2 [QRFP26] gave an Emax (Exp. #1) of 96.63 % WT, an Emax (Exp. #2) of 100.59 % WT and an Emax (Exp. #3) of 99.12 % WT. The Emax (mean, read-out: Emax) was 98.8%, the EC50 (n = 3) was 288 nM and the Emax (n = 3, read-out: Emax) was 101 ± 0.94%.
